Measurements published in patent US6831039B1, “3-(heterocyclyl)-substituted benzolpyrazols” (BASF Aktiengesellschaft, priority 1998, dated 2004).

Legend:
Test in all cases: Greenhouse post-emergence herbicidal test
barnyard grass = type: in vivo, Echinochloa crus galli; conditions: 0.5 or 0.25 kg/ha
From the text: (§1) The seeds of the test plants were sown separately for each species. For the post-emergence treatment, the test plants were first grown to a height of 3 to 15 cm, depending on the plant habit, and only then treated with the active compounds which had been suspended or emulsified in water. The test plants were, for this purpose, either sown directly and grown in the same containers, or they were first grown separately as seedlings and transplanted into the test containers a few days prior to treatment. The application rate for the post-emergence treatment was 0.5, 0.25, 0.125 or 0.0625 kg of a.s. (active substance)/ha. Depending on the species, the plants were kept at 10-25° C. or 20-35° C. The test period extended over 2 to 4 weeks. During this time, the plants were tended, and their response to the individual treatments was evaluated. The evaluation was carried out using a scale from 0 to 100. 100 means no emergence of the plants, or complete destruction of at least the aerial parts and 0 means no damage, or normal course of growth. The plants used in the greenhouse experiments were of the following species: [table]

green foxtail = type: in vivo, Setaria viridis
From the text: as §1

lamb's-quarters = type: in vivo, Chenopodium album; conditions: 0.5 or 0.25 kg/ha
From the text: as §1

black nightshade = type: in vivo, Solanum nigrum; conditions: 0.5 or 0.25 kg/ha
From the text: as §1

pigweed = type: in vivo, Amaranthus retroflexus; conditions: 0.25 or 0.125 kg/ha
From the text: as §1

white mustard = type: in vivo, Sinapis alba; conditions: 0.25 or 0.125 kg/ha
From the text: as §1

lady's-thumb = type: in vivo, Polygonum persicaria; conditions: 0.25 or 0.125 kg/ha
From the text: as §1

wild oat = type: in vivo, Avena fatua; conditions: 0.25 or 0.125 kg/ha
From the text: as §1

Cc1nn(C(C)(C)C)c(O)c1C(=O)c1ccc(S(C)(=O)=O)c(C2=NOCC2)c1C [Compound 2.8]
very good: post-emergence control of harmful plants (barnyard grass) | post-emergence control of harmful plants (green foxtail; 0.5 or 0.25 kg/ha) | post-emergence control of harmful plants (lamb's-quarters) | post-emergence control of harmful plants (black nightshade)

Cc1c(C(=O)c2cnn(C(C)C)c2O)ccc(S(C)(=O)=O)c1C1=NOCC1 [Compound 2.9]
very good: post-emergence action on grasses and weeds (pigweed) | post-emergence action on grasses and weeds (white mustard) | post-emergence action on grasses and weeds (green foxtail; 0.25 or 0.125 kg/ha) | post-emergence action on grasses and weeds (lady's-thumb) | post-emergence action on grasses and weeds (wild oat)
